# From patent publication US9730906B2, “α-derivatives of cis-monounsaturated fatty acids for use as medicines” (UNIVERSITAT DE LES ILLES BALEARS, priority 2008, dated 2017)
# Legend:
# cyclooxygenase-2 (COX-2) = assay: Cellular concentration of COX-2 in U937 differentiated monocytes (immunoblot); format: cell-based, human; details: 250 μM, 6 hours; compared with fatty acids not of Formula I, p<0.05
# Method: FIG. 19B. Effect of various fatty acids in the inhibition (concentration of protein) of cyclooxygenase-2 (immunoblot of COX-2). […] Cell cultures (U937 differentiated monocytes) were treated with the fatty acids of the invention (250 μM, 6 hours).
# (§1) In an additional study on the release of various proinflammatory cytokines (IL-1b, IL-6, IL-8, IL-10) and TNF-α in U937 monocytes stimulated with bacterial lipopolysaccharide (LPS), a marked reduction in the levels of these molecules was observed after treatments with OHHD at a concentration of 250 μM and 72 h incubation (Table 4). The effect of the α-derivatives of cis-monounsaturated fatty acids (250 μM, 6 h) on the activity and expression of the COX-1 and COX-2 cyclooxygenases was investigated in the same system.
# [1] = target: T1, cyclooxygenases-1 (COX-1) (Homo sapiens, UniProt P23219); assay: COX-1 activity in U937 differentiated monocytes (Cayman COX-1 inhibitor screening system); format: cell-based; details: 250 μM, 6 hours; compared with fatty acids not of Formula I, p<0.05
# T1 construct: endogenous in cells; host or cells: U937 differentiated monocytes
# T1 sequence (P23219 24-599): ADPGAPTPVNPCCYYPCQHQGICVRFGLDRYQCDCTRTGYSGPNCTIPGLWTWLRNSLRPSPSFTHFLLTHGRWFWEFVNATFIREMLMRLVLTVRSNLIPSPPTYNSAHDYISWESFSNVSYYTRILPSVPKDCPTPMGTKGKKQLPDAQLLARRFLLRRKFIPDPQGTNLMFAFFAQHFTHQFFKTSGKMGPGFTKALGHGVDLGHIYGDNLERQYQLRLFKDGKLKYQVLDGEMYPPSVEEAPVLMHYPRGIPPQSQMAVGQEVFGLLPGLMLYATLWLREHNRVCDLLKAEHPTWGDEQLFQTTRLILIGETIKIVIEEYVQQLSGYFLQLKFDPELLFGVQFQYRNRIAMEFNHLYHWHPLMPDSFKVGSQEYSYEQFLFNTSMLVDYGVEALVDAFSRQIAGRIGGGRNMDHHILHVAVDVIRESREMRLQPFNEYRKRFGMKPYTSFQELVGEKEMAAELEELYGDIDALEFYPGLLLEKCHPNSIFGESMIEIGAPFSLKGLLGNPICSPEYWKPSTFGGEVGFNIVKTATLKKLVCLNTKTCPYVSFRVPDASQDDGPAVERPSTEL
# Method: FIG. 19A. Effect of various fatty acids in the inhibition of the activity of cyclooxygenases-1 (COX-1) (Cayman COX-1 inhibitor screening system). […] Cell cultures (U937 differentiated monocytes) were treated with the fatty acids of the invention (250 μM, 6 hours).
# as §1
# [2] = tested on: A549 cells of human lung adenocarcinoma; assay: Prevention of tumour development in nude mice injected with A549 cells; format: in vivo; details: 400 mg/kg per day oral, 2 weeks before and one month after A549 injection, compared with fatty acids not of Formula I, p<0.05
# From the text: FIG. 2. Preventative effect of various fatty acids against tumour development. […] Animals received treatment before injection of tumour cells and the treatment was subsequently maintained. Animals of the control group were not treated and the volume of their tumours was taken as the reference value (100%).
# To determine whether the fatty acids of the invention have applications in the prevention of the development of tumour processes, an animal cancer model was used. This model consisted of immune-deprived animals ([Crl:Nu(Ico)-Fox 1] nude mice in which non-microcytic human lung cancer cells were injected (5×10^6 A549 cells per animal). The control group (infected with cancer cells but untreated) started to develop tumours that were visible after a few days. The sizes of the tumours were measured for the first time at 10 days after implanting the tumour and measurements continued for up to 31 days after the implantation with a digital calliper. The volume of the tumours was calculated with the following equation: v=w^2×l/2 where v is the volume of the tumour, w is its width and l is the length. Preventative treatments against development of the cancer were applied. To carry out these treatments, 400 mg/kg were administered per day for 2 weeks before the injection of tumour cells. This treatment was continued for one month after the implantation of the tumour cells and the volume of the tumours in the animals was measured. Each experimental group was composed of 8 animals. Oral administration of α-derivatives of cis-monounsaturated fatty acids prevented cancer development (A549 cells of human lung adenocarcinoma) (FIG. 2). […] Therefore it was concluded that the introduction of a double bond in the cis configuration in the structure of the fatty acid is a critical factor in the prevention and treatment by fatty acids of cancer development.
# [3] = Rat obesity induced by cafeteria diet, preventative pre-treatment (Table 3); format: in vivo, Wistar Kyoto rats; details: 300 mg/kg oral, after two weeks on cafeteria diet; obese control 308 ± 17, lean control 280 ± 16; * lower than obese controls, ‡ indistinguishable
# In short: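 Groups of 6 female Wistar Kyoto rats (250-300 g) received oral pre-treatment with 300 mg/kg fatty acid or vehicle during 2 weeks on standard diet. Dosing continued for two further weeks on cafeteria diet, with lean and obese vehicle controls. Body-weight gain was the read-out.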
# [4] = tested on: SF767 human brain cancer cells; assay: Tumour volume in nude mice infected with SF767 human brain cancer cells; format: in vivo; details: 600 mg/kg daily for 50 days; for volume of tumours (percent compared to control): p<0.001 vs control
# Method: FIG. 6A. Effect of different salts of OHOD on human lung cancer in an animal cancer model. The volume of tumours in nude mice infected with SF767 human brain cancer cells (expressed as a percent compared to control) receiving various treatments. The animals received a vehicle (water: Control), 600 mg/kg of OHOD in the form of free fatty acid (OHOD), 600 mg/kg of sodium salt of OHOD (Na-OHOD) or 600 mg/kg of ammonium salt of OHOD (NH3OHOD) daily for 50 days.
# FIG. 6B. Effect of different salts of OHOD on human lung cancer in an animal cancer model. The effect of different doses of sodium salt of OHOD (Na-OHOD) are shown on tumour volumes in mice infected with SF767 cells and treated with vehicle (control, 0 mg/kg), 100 mg/kg (100), 200 mg/kg (200), 400 mg/kg (400) and 600 mg/kg (600) for 50 days. * p<0.05; ***p<0.001.
# One important characteristic of the molecules covered in the present invention is that they can form various types of salts. FIG. 6A and Table 5 show the therapeutic effects of various α-derivatives of cis-monounsaturated fatty acids and their salts. […] The specificity of this effect is determined by the relation between the dose and the effect these molecules have on the volume of human tumours implanted in animals (FIG. 6B).
cellular concentration of COX-2 (% of control) (cyclooxygenase-2 (COX-2)),inhibition of COX-1 activity (% of control) [1],SMILES,tumour volume (prevention of tumour development) [2],Final weight [3],volume of tumours (percent compared to control) [4],potency on tumour volume compared with the free fatty acid OHOD ([4]; p<0.05)
more significant effect,more significant effect,"CCCCCCCC/C=C\CCCCCCC(OC)C(=O)O (stereo not drawn) [MOOD, α-Methoxy-cis-Δ9-octadecenoic]",more significant effect,263 ± 22* g,–,–
–,–,CCCCCCCC/C=C\CCCCCCC(O)C(=O)[O-].[Na+] (centres unmarked) [Na-OHOD],–,–,significant reductions in the size of tumours,significantly more potent
more significant effect,more significant effect,"CCCCCCCC/C=C\CCCCCCC(O)C(=O)O (stereo not drawn) [OHOD, α-Hydroxy-cis-Δ9-octadecenoic]",more significant effect,284 ± 13* g,significant reductions in the size of tumours,–
